# Measurements taken from patent US7582609B2, “Method for the treatment of skin fibrosis and suitable compositions for such treatment” (Digna Biotech, S.L., priority 2006, dated 2009).
# Ends that are not written are not given here.
# Tested on: bleomycin-induced skin sclerosis
# Conditions: mouse, in vivo
# Protocol: Two emulsions or creams were prepared, an emulsion containing peptide P144 and a control emulsion with the vehicle for administration but without P144.
# The control emulsion with the vehicle for administration was prepared by a procedure that starts with mixing of the components that are shown below in Table 2:
# Next, this mixture was heated at 70° C. and was emulsified with 44.4 g of distilled water (also at 70° C.).
# The emulsion containing the P144 was prepared as previously, except that the 44.4 g of water was replaced with a mixture of 44.28 g of water plus 0.010 g of P144 previously dissolved in 100 μl of dimethylsulphoxide.
# The test was carried out using 6-week-old female C3H mice, supplied by Harlan SL (Spain). Development of skin sclerosis in the mice was induced by the administration of bleomycin (Sigma, Spain) dissolved in PBS at a concentration of 100 μg/ml and sterilized by filtration. The mice were injected with the bleomycin subcutaneously in the skin of the back, previously shaved, at daily doses of 100 μl of the solution in PBS injected with size 27 needles. […]
# The thickness of the dermis was measured on the digitized images of the sections stained with haematoxylin and eosin, and then the percentage variation in thickness of the dermis was calculated relative to the mean of the values obtained for the mice treated with PBS, adjusted to 100%. […]
sequence,measurement,value
TSLDASIIWAMMQN [Peptide P144],morphological changes in the epidermis,No changes were observed
same,signs of systemic toxicity,without signs of systemic toxicity
